Patent publication US12492210B2, “Tricyclic compounds and their use” (HUTCHISON MEDIPHARMA LIMITED, priority 2019, dated 2025)

Experiments:
MAPK1(ERK2) enzyme = target: T1, MAPK1(ERK2) enzyme (Homo sapiens, UniProt P28482); experiment: Z-Lyte Kinase Assay of ERK2; format: biochemical; details: read-out: Example 18 IC50
T1 construct: purchased Invitrogen PV3313
Experimental: Example 18: Z-Lyte Kinase Assay of ERK2
1. Materials and Reagents:
2. Reaction Steps: Plate Map
3. Solution Preparation • 1) 1.33× Kinase Buffer: Dilute 5× Kinase Buffer to 1.33× with ddH2O • 2) 4× Test Compounds: Serially dilute the test compounds to 4 folds of the concentrations desired, keeping the DMSO concentration at 8%. The final concentrations are 1, 0.33, 0.11, 0.037, 0.012, 0.004, 0.0014, 0.00046 μM, and the final concentration of DMSO is 2%. • 3) Kinase/Peptide Mixture (P/K solution): Prepare Kinase/Peptide Mixture by diluting the kinase to 0.6 μg/ml and the Z-LYTE™ Ser/Thr3 peptide to 4 μM in 1.33× Kinase Buffer. Mix gently by pipetting. • 4) Phospho-peptide Solution (PP solution): Add 0.4 μl of Z-LYTE™ Ser/Thr3 Phospho-peptide to 99.6 μl of 1.33× Kinase Buffer. • 5) ATP Solution: Prepare ATP Solution by diluting the 10 mM of ATP in 1.33× Kinase Buffer to 100 μM. • 6) Development Solution: Dilute Development Reagent A with Development Buffer as 1:1024. 4. Reaction • 1) Kinase reaction (10 μl of Volume) • a. In a 384-well plate, add 2.5 μl of 4× test Cpds to each well except C1, C2, C3 wells Add 2.5 μl of 8% DMSO to C1, C2, C3 wells • b. Put the plate on ice • c. Add 5 μl of P/K mixture to each test Cpd wells and C1, C2 wells • d. Add 5 μl of PP Solution to C3 well • e. Add 2.5 μl of 1.33× kinase buffer to C1 and C3 wells • f. Add 2.5 μl of 4×ATP Solution to each test Cpd wells and C2 well, respectively. Shake the plate for 30 Sec and centrifuge (1500 rpm, 1 min) • g. Seal the plate to protect from the light and incubate the plate for 1 hour at RT (25-30° C.) • 2) Development reaction • a. Add 5 μl of the Development solution to all wells • b. Shake the plate for 30 sec and centrifuge (1500 rpm, 1 min) • c. Seal the plate to protect from the light and incubate the plate for 1 hour at RT (25-30° C.) • 3) Stop and read • a. Add 5 μl of the Stop reagent to all wells • b. Shake the plate for 30 sec and centrifuge (1500 rpm, 1 min) • c. Measure the value of coumarin (Ex400 nm, Em445 nm) and fluorescein (Ex400 nm, Em520 nm), respectively. 5. Data Analysis Emission Ratio(ER)=Coumarin Emission (445 nm)/Fluorescein Emission (520 nm) % Phosphorylation=1−[ER×C3520nm−C3445nm]/[(C1445nm−C3445nm)+ER×(C3520nm−C1520nm)] Inhibition rate (IR)=1−% Photest Cpd% PhoC2 6. IC50 Value: determine IC50 with add-in software for Microsoft Excel, XLfit™ (version 2.0) from ID Business Solutions (Guildford, UK)

[1] = test system: p-RSK (Thr359) in colo205 cells; experiment: p-RSK (Thr359) Acumen Assay in Colo205; format: cell-based; details: Homo sapiens, COLO 205, 1 hour compound incubation, read-out: Example 19 IC50
Experimental: Example 19: p-RSK (Thr359) Acumen Assay in Colo205
• Phospho-p90RSK (Thr359) (D1E9) Rabbit mAb: cell signal, #8753 • Alexa Fluor® 488 donkey anti-rabbit IgG: invitrogen, #A-21206 • Propidium Iodide: Sigma, #p4170 • 4% Paraformaldehyde: SCRC, #DF021 • 10% Triton X-100: PIERCE, #28314 • 96-well plate (black with clear bottom): BD, #354640 • Acumen® eX3 (A Multilaser Microplate Cytometer For Enhanced High Content Screening): TTP LabTech 3. Acumen Assay Protocol • Seed 4000 cells in 100 μl 10% FBS/well into 96-well plate, incubate at 37° C., 5% CO2, overnight. • Dilute the compound to 3, 1, 0.33, 0.11, 0.037, 0.012, 0.004, 0.001 μM, keeping the DMSO concentration at 5%. Add 10 μl of diluted compound per well and incubate at 37° C., 5% CO2 for 1 hour. • Add 100 μl of 4% pre-warmed Paraformaldehyde (2% final), and incubate for 45 min at room temperature. • Remove paraformaldehyde solutions. Add 100 μl of ice-cold 0.1% Triton to fixed cells at room temperature for 30 min. • Wash twice with 150 μl PBS and incubate with 100 μl blocking buffer (1% BSA, in PBS) for 2˜3 hours at room temperature, seal the plate. • Wash once with PBS and incubate with 35 μl p-RSK (Thr359) (1:1000 dilution) overnight at 4° C. Seal the plate. • Wash twice with PBS and incubate for 1.5 hours at room temperature with 35 μl of Alexa Fluor® 488 donkey anti-rabbit IgG at a 1:1,000 dilution in antibody dilution buffer (0.1% BSA, in PBS). Cover plate in foil to keep out of light. • Wash twice with 150 μl PBS. Add 35 μl of 1.5 μM Propidium Iodide stock to each well to determine cell number, seal the plate. • Incubate at room temperature for 30 min. Load the plate into the Acumen Explorer and scan with the appropriate instrument settings. 4. Data Analysis
[formula] Note: • Percentagecompound well represents the positive percentage of cells treated by compound. • Percentagemin well represents the positive percentage of cells treated with 3 uM GDC0994. • Percentagemax well represents the positive percentage of cells without compounds treatment. 5. IC50 Value: determine IC50 with add-in software for Microsoft Excel, XLfit™ (version 2.0) from ID Business Solutions (Guildford, UK)

T1 sequence (P28482 whole entry): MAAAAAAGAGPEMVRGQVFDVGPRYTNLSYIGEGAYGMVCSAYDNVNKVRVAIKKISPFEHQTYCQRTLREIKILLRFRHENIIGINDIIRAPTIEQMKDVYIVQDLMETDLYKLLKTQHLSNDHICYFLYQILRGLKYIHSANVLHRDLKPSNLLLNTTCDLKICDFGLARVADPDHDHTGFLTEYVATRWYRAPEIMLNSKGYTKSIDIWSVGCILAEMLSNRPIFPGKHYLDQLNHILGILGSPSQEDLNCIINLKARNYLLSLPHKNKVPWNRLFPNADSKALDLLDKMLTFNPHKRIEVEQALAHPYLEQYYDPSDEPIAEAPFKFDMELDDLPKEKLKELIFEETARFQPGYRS

Row | IC50 (MAPK1(ERK2) enzyme) [nM] | IC50 [1] [nM] | SMILES
1 | ≤ 5 | ≤ 100 | Cc1cnc(Nc2ccnn2C)nc1-c1cn2c(n1)-c1nnc(C(F)(F)c3ccccc3Cl)n1[C@@H](C)C2 [Compound 222]
2 | 5 to 10 | > 100 | Cn1nccc1Nc1nccc(-c2cc3n(c2)C[C@H](C(F)(F)F)n2c-3nnc2C(F)(F)c2ccccc2F)n1 [Compound 273]
3 | 5 to 10 | ≤ 100 | Cc1cnc(Nc2ccnn2C)cc1-c1cc2n(c1)C[C@H](CF)n1c-2nnc1C(F)(F)c1ccccc1F [Compound 126]
4 | ≤ 5 | ≤ 100 | Cc1cnc(Nc2ccnn2C)nc1-c1cc2n(c1)[C@@H](C)Cn1c-2nnc1C1(C(F)(F)F)CCC1 [Compound 47]
5 | ≤ 5 | ≤ 100 | Cc1cnc(Nc2ccnn2C)cc1-c1cc2n(c1)CC(F)(F)Cn1c-2nnc1C1(C(F)(F)F)CCC1 [Compound 117]
6 | ≤ 5 | > 100 | Cn1nccc1Nc1cc(-c2cc3n(c2)CC2(COC2)n2c(CCC(F)(F)F)nnc2-3)c(Cl)cn1 [Compound 305]
7 | 5 to 10 | > 100 | Cc1cnc(Nc2ccnn2C)cc1-c1cc2n(c1)CC1(Cn3c-2nnc3C(F)(F)C(F)F)CC(F)(F)C1 [Compound 168]
8 | ≤ 5 | ≤ 100 | Cn1nccc1Nc1cc(-c2cc3n(c2)CC2(CC2)Cn2c-3nnc2C2(C(F)F)CCC2)c(Cl)cn1 [Compound 51]
9 | 5 to 10 | > 100 | Cc1cnc(Nc2ccnn2C)cc1-c1cc2n(c1)C[C@H](CF)n1c-2nnc1C(F)(F)c1ccc(F)c(F)c1 [Compound 181]
10 | ≤ 5 | > 100 | Cc1cnc(Nc2ccnn2C)cc1-c1cc2n(c1)C[C@H](CF)n1c-2nnc1C(F)(F)C(F)(F)F [Compound 76]
11 | ≤ 5 | ≤ 100 | Cn1nccc1Nc1cc(-c2cc3n(c2)CCCn2c-3nnc2C2(C(C)(F)F)CCC2)c(Cl)cn1 [Compound 49]
12 | 5 to 10 | > 100 | COC[C@H]1Cn2cc(-c3cc(Nc4ccnn4C)ncc3C)cc2-c2nnc(C(F)(F)c3ccccc3F)n21 [Compound 303]
13 | 5 to 10 | ≤ 100 | Cn1nccc1Nc1cc(-c2cc3n(c2)CC(C)(C)n2c-3nnc2C(F)(F)C(F)F)c(Cl)cn1 [Compound 249]
14 | > 10 | ≤ 100 | Cn1nccc1Nc1cc(-c2cc3n(c2)CCCn2c(COc4ccccc4F)nnc2-3)c(Cl)cn1 [Compound 38]
15 | ≤ 5 | > 100 | Cc1cc(C(F)(F)c2nnc3n2[C@@H](CF)Cn2cc(-c4cc(Nc5ccnn5C)ncc4C)cc2-3)on1 [Compound 99]
16 | ≤ 5 | > 100 | Cn1nccc1Nc1nccc(-c2cc3n(c2)CCCn2c(COc4ccccc4)nnc2-3)n1 [Compound 36, N-(1-methyl-1H-pyrazol-5-yl)-4-(3-(phenoxymethyl)-6,7-dihydro-5H-pyrrolo[1,2-a][1,2,4]triazolo[3,4-c][1,4]diazepin-10-yl)pyrimidin-2-amine]
17 | > 10 | ≤ 100 | Cc1cnc(Nc2ccnn2C)cc1-c1cc2n(c1)C[C@H](C)n1c-2nnc1C(F)(F)c1ccccc1F [Compound 83]
18 | ≤ 5 | ≤ 100 | Cc1cnc(Nc2ccnn2C)cc1-c1cc2n(c1)C[C@H](CF)n1c-2nnc1C(F)(F)n1ccc(Cl)n1 [Compound 152]
19 | ≤ 5 | ≤ 100 | Cn1nccc1Nc1cc(-c2cc3n(c2)C[C@@H](O)Cn2c-3nnc2C2(C(F)(F)F)CCC2)c(Cl)cn1 [Compound 216]
20 | > 10 | ≤ 100 | Cc1cc(Nc2ncc(C)c(-c3cc4n(c3)C[C@H](C)n3c-4nnc3C(F)(F)c3ccccc3F)n2)n(C)n1 [Compound 288]
21 | 5 to 10 | ≤ 100 | Cc1cnc(Nc2ccnn2C)cc1-c1cc2n(c1)C[C@H](CF)n1c-2nnc1C(F)(F)c1ccccc1Cl [Compound 172]
22 | 5 to 10 | > 100 | COc1cc(Nc2cc(-c3cc4n(c3)CCCn3c-4nnc3C3(C(F)(F)F)CCC3)c(Cl)cn2)n(C)n1 [Compound 269]
23 | ≤ 5 | ≤ 100 | Cn1nccc1Nc1ncc(Cl)c(-c2cc3c4nnc(CC(F)(F)F)n4ccn3c2)n1 [Compound 212]
